In one test the target is T1, UCH-L3 (Homo sapiens, UniProt P15374).
T1 sequence (P15374 1-230): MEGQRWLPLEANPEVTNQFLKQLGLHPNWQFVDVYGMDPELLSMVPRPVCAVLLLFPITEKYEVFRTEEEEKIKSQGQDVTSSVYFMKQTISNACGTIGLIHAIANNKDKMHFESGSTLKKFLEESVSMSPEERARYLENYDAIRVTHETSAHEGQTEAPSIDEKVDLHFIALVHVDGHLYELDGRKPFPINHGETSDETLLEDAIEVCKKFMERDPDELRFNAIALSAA
Nature of the test: UCH-L3 activity assay (Ub-AMC). It counts as biochemical. Particulars: 300 nM Ub-AMC, 13 pM enzyme. As to the method:
UCH-L3 was diluted in USP buffer (50 mM Tris HCl; 0.5 mM EDTA; 5 mM DTT; 0.01% Triton X-100; Bovine Serum Albumin 0.05 mg·ml^−1 pH 7.6). Compounds stocks (100 mM) were stored at −20° C. in DMSO. Compounds were tested at different concentrations: from 200 μM to 91 nM.
Reactions were performed as duplicates in Black 384 well plates (small volume microplates; Greiner; 10 μl final reaction volume). The substrate concentration for UCH-L3 was 300 nM Ub-AMC (Boston Biochem). The concentration of the enzyme (UCH-L3) in specificity assays was 13 pM. The concentrations were determined in order to perform specificity assays under initial velocities at fixed substrate concentration. Compounds were pre-incubated with enzymes for 30 minutes at 25° C. Reactions were initiated by addition of substrate to the plates containing the enzymes (+/−compounds) diluted in assay buffer. Reactions were incubated for 60 minutes at 37° C. Reactions were stopped by adding acetic acid (100 mM final). Readings were performed on a Pherastar Fluorescent Reader (BMG). λ Emission 380 nm; λ Excitation=460 nm. Data (mean values+/−standard deviation) were analyzed as % of control (no compound) and plotted as percentage versus the Log of the compound concentration using GraphPad (Prism). Data were fitted to a sigmoidal model (variable slope).

For the next test, the target named is USP7 (Homo sapiens, UniProt Q93009). The test is described as follows: USP7 activity assay (Ub-AMC). In kind it is biochemical. Further details: Full-length wild-type human USP7 and its catalytic mutant (cysteine 223 replaced by alanine, C223A) were produced as N-terminally His-tagged fusions; His tag (pFastBac-HT) (N); made in house; host or cells: Spodoptera frugiperda Sf9 (or High Five) insect cells, baculovirus. Particulars: 300 nM Ub-AMC, 100 pM enzyme, 30 min pre-incubation; read-out: USP7 (inhibition of deubiquitinating activity). From the text: The cDNA encoding USP7 was obtained by PCR amplification from placenta mRNA. USP7 cDNA was subcloned by PCR into a baculovirus expression vector (pFastBac-HT; Invitrogen). Full-length wild-type human USP7 and its catalytic mutant (cysteine 223 replaced by alanine, C223A) were produced as N-terminally His-tagged fusions in Spodoptera frugiperda cells (Sf9, Invitrogen), using the Bac-to-Bac Baculovirus system from Invitrogen according to the manufacturer's instructions. pFastBac-HT-B-USP7 was used to transform DH10bac cells (Invitrogen), and blue/white selection was carried out on X-gal/IPTG agar plates. Bacmid DNA was prepared by an alkaline lysis procedure. The integrity of the bacmid minipreps and their orientation were checked by PCR, using generic and specific primers. Sf9 insect cells were cultured in InsectXpress medium (Cambrex) at 27° C. and transfected with the corresponding bacmid, using GeneShuttle 40 (Q-BIOgen). Viruses were recovered in the supernatant 72 h after transfection. Viruses were amplified by infecting insect cells (Sf9 or High Five cells; invitrogen) in 50 ml InsectXpress medium in a 150 cm^2 cell culture flask with 500 μl of the supernatant from transfected Sf9 cells. Following the second round of amplification, infected cells were recovered by rapid SDS lysis, boiled for 5 min at 100° C., sonicated briefly and centrifuged for 20 min at 14,000 g. Expression levels in infected Sf9 cells were compared with those in uninfected cells. Fusion proteins were then allowed to bind to TALON beads (BD Biosciences, TALON metal affinity resin) for 30 min at 4° C. with gentle rocking. Beads were extensively washed (50 mM sodium phosphate buffer pH 7.0, 500 mM NaCl, 10 mM Imidazole, 0.5% Triton X-100 and 10% glycerol) and bound proteins were eluted in wash buffer supplemented with 250 mM Imidazole (Sigma). Eluted fractions were resolved on 4-12% NuPAGE gels (Novex, Invitrogen). Fractions containing high concentrations of purified proteins (purity>95%) were dialyzed (20 mM Tris HCl pH 7.6, 200 mM NaCl, 1 mM DTT, 1 mM EDTA and 10% glycerol) were aliquoted and snap frozen in liquid nitrogen before storage at −80° C.
Chain of USP7 (Q93009 whole entry, the tested form may be a part): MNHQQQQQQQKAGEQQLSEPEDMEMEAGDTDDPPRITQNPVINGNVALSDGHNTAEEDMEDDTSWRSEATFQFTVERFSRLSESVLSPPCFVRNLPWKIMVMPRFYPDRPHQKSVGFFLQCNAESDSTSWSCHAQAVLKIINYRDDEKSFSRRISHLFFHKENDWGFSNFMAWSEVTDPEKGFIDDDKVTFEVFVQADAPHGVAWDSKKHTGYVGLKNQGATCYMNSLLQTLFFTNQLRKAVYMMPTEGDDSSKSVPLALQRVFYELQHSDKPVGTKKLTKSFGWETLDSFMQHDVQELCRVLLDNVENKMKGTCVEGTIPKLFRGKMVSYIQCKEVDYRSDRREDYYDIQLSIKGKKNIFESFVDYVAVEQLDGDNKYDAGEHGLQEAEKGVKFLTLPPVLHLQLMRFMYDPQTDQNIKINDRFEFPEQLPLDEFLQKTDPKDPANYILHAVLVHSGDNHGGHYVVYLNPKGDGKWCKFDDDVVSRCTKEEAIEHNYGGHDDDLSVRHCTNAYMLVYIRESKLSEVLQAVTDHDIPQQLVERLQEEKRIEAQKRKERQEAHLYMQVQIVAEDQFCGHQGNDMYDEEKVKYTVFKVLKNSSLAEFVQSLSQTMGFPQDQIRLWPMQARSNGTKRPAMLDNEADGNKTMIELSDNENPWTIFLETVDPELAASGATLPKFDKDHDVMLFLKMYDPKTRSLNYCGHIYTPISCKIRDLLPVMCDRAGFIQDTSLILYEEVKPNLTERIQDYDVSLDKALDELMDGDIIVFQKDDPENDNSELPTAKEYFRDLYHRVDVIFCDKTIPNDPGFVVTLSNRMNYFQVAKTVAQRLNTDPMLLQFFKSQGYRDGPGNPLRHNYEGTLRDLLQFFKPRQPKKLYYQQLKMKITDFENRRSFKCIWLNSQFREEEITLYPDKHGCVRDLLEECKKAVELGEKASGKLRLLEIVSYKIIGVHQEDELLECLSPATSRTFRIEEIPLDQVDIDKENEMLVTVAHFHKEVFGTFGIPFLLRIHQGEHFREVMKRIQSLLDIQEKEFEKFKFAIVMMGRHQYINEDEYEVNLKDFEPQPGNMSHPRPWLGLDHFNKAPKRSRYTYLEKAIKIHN
USP7 was diluted in USP buffer (50 mM Tris HCl; 0.5 mM EDTA; 5 mM DTT; 0.01% Triton X-100; Bovine Serum Albumin 0.05 mg·ml^−1 pH 7.6). Compounds stocks (10 mM) were stored at −20° C. in DMSO. Compounds were tested at different concentrations: from 200 μM to 91 nM.
Reactions were performed as duplicates in Black 384 well plates (small volumes microplates; Greiner; 10 μl final reaction volume). The substrate concentration for USP7 was 300 nM Ub-AMC (Chem. Biol., 2003, 10, p. 837-846) (Boston Biochem). The concentrations of the enzyme (USP7) in specificity assays was 100 pM. The concentrations were determined in order to perform specificity assays under initial velocities at fixed substrate concentration. Compounds were pre-incubated with enzymes for 30 minutes at 25° C. Reactions were initiated by addition of substrate to the plates containing the enzymes (+/−compounds) diluted in assay buffer. Reactions were incubated for 60 minutes at 37° C. Reactions were stopped by adding acetic acid (100 mM final). Readings were performed on a Pherastar Fluorescent Reader (BMG). λ Emission 380 nm; λ Excitation=460 nm. Data (mean values+/−standard deviation) were analyzed as % of control (no compound) and plotted as percentage versus the Log of the compound concentration using GraphPad (Prism). Data were fitted to a sigmoidal model (variable slope).

The structures appear in SMILES notation.

Turning to `CCCN(CCC)CCCNC(=O)c1ccc2c(Cl)c3c(nc2c1)CCCC3` [Example 6, 9-Chloro-5,6,7,8-tetrahydro-acridine-3-carboxylic acid (3-dipropylamino-propyl)-amide], the IC50 is > 200 µM at UCH-L3 and 23.8 µM on USP7.
On the same counts, the results for `CCCCN(CC)CCNC(=O)c1ccc2c(Cl)c3c(nc2c1)CCCC3` [Example 4, 9-Chloro-5,6,7,8-tetrahydro-acridine-3-carboxylic acid [2-(butyl-ethyl-amino)-ethyl]-amide] are > 200 µM and 23.5 µM.
On to `CN(CCCNC(=O)c1ccc2c(Cl)c3c(nc2c1)CCCC3)Cc1ccccc1` [Example 14, 9-Chloro-5,6,7,8-tetrahydro-acridine-3-carboxylic acid [3-(benzyl-methyl-amino)-propyl]-amide], for which the IC50 on UCH-L3 is > 200 µM; at USP7 it was 28.1 µM.
`CCN(CCCNC(=O)c1ccc2c(Cl)c3c(nc2c1)CCCC3)Cc1ccccc1` [Example 5, 9-Chloro-5,6,7,8-tetrahydro-acridine-3-carboxylic acid [3-(benzyl-ethyl-amino)-propyl]-amide]: the IC50 against UCH-L3 is > 200 µM; on USP7, 22.6 µM.
Regarding `O=C(NCCCN1CCCC1)c1ccc2c(Cl)c3c(nc2c1)CCCC3` [Example 8, 9-Chloro-5,6,7,8-tetrahydro-acridine-3-carboxylic acid (3-pyrrolidin-1-yl-propyl)-amide], the IC50 was > 200 µM on UCH-L3 and 25.6 µM at USP7.
For `CCCN1CCN(CCCNC(=O)c2ccc3c(Cl)c4c(nc3c2)CCCC4)CC1` [Example 13, 9-Chloro-5,6,7,8-tetrahydro-acridine-3-carboxylic acid [3-(4-propyl-piperazin-1-yl)-propyl]-amide], the IC50 was > 200 µM on UCH-L3 and 37.9 µM at USP7.
As for `Cc1cccc(CN2CCC(CNC(=O)c3ccc4c(Cl)c5c(nc4c3)CCCC5)CC2)c1` [Example 1, 9-Chloro-5,6,7,8-tetrahydro-acridine-3-carboxylic acid [1-(3-methyl-benzyl)-piperidin-4-ylmethyl]-amide], the IC50 against UCH-L3 is > 200 µM; at USP7, 9.1 µM.
On the same counts, the results for `CCN(CC)CCCNC(=O)c1ccc2c(Cl)c3c(nc2c1)CCCC3` [Example 10, 9-Chloro-5,6,7,8-tetrahydro-acridine-3-carboxylic acid (3-diethylamino-propyl)-amide] are > 200 µM and 29.2 µM.
For the compound `O=C(c1ccc2c(Cl)c3c(nc2c1)CCCC3)N1CCC(N2CCCCC2)CC1` [Example 16, [1,4′]Bipiperidinyl-1′-yl-(9-chloro-5,6,7,8-tetrahydro-acridin-3-yl)-methanone], the IC50 is > 200 µM on UCH-L3 and 46 µM at USP7.
On the same counts, the results for `CCN(CC)CCNC(=O)c1ccc2c(Cl)c3c(nc2c1)CCCC3` [Example 7, 9-Chloro-5,6,7,8-tetrahydro-acridine-3-carboxylic acid (2-diethylamino-ethyl)-amide] are > 200 µM and 24.9 µM.
As to `CC1CCCC(C)N1CCCNC(=O)c1ccc2c(Cl)c3c(nc2c1)CCCC3` (centres unmarked) [Example 9, 9-Chloro-5,6,7,8-tetrahydro-acridine-3-carboxylic acid [3-(2,6-dimethyl-piperidin-1-yl)-propyl]-amide], the IC50 against UCH-L3 was > 200 µM; at USP7, 28.7 µM.
On the same counts, the results for `CCCN(CCC)CCNC(=O)c1ccc2c(Cl)c3c(nc2c1)CCCC3` [Example 3, 9-Chloro-5,6,7,8-tetrahydro-acridine-3-carboxylic acid (2-dipropylamino-ethyl)-amide] are > 200 µM and 12.4 µM.
For `CN(C)CCNC(=O)c1ccc2c(Cl)c3c(nc2c1)CCCC3` [Example 11, 9-Chloro-5,6,7,8-tetrahydro-acridine-3-carboxylic acid (2-dimethylamino-ethyl)-amide], in that order: > 200 µM and 29.8 µM.
For `O=C(c1ccc2c(Cl)c3c(nc2c1)CCCC3)N1CCCCCC1` [Example 12, Azepan-1-yl-(9-chloro-5,6,7,8-tetrahydro-acridin-3-yl)-methanone], the IC50 was > 200 µM on UCH-L3 and 37.9 µM on USP7.
On the same counts, the results for `CCN1CCCC1CNC(=O)c1ccc2c(Cl)c3c(nc2c1)CCCC3` (centres unmarked) [Example 2, 9-Chloro-5,6,7,8-tetrahydro-acridine-3-carboxylic acid (1-ethyl-pyrrolidin-2-ylmethyl)-amide] are > 200 µM and 11.5 µM.
In the case of `CN1CCN(CCCNC(=O)c2ccc3c(Cl)c4c(nc3c2)CCCC4)CC1` [Example 15, 9-Chloro-5,6,7,8-tetrahydro-acridine-3-carboxylic acid [3-(4-methyl-piperazin-1-yl)-propyl]-amide], the figures for the IC50 on UCH-L3 and at USP7 were > 200 µM and 43 µM, respectively.

The values above are taken from patent US20110177105A1, “Novel Selective Inhibitors of Ubiquitin Specific Protease 7, the Pharmaceutical Compositions Thereof and Their Therapeutic Applications” (priority 2010, published 2011).
